Experimental data as given in ChEMBL document CHEMBL5252604, “11C-Labeling of acyclic retinoid peretinoin by rapid C-[11C]methylation to disclose novel brain permeability and central nervous system activities hidden in antitumor agent” (Bioorg Med Chem Lett, 2023).

Assays:
[1] = Drug uptake in iv dosed monkey brain assessed as standardized uptake value after 90 mins by PET imaging analysis; type: ADME, organism-based, Macaca mulatta; details: rhesus monkey, in vivo, 1.5 h
[2] = Drug metabolism in iv dosed Wistar rat brain assessed as metabolite formation after 30 to 90 mins RP-HPLC analysis; type: ADME, organism-based; details: in vivo, time 30-90 min
[3] = Drug uptake in iv dosed mouse liver assessed as standardized uptake value at 5 mins by PET imaging analysis; type: ADME, organism-based; details: in vivo
[4] = Drug uptake in iv dosed mouse liver assessed as standardized uptake value at 60 mins by PET imaging analysis; type: ADME, organism-based; details: in vivo, 1 h
[5] = Drug uptake in iv dosed mouse brain assessed as standardized uptake value by PET imaging analysis; type: ADME, organism-based; details: in vivo
[6] = Drug uptake in iv dosed Wistar rat brain assessed as standardized uptake value after 120 mins by PET imaging analysis; type: ADME, organism-based; details: in vivo, 2 h
[7] = Drug metabolism in iv dosed Wistar rat blood assessed as metabolite formation after 30 mins RP-HPLC analysis; type: ADME, organism-based; details: in vivo, 0.5 h
[8] = Drug uptake in iv dosed Wistar rat brain after 3 mins; type: ADME, organism-based; details: in vivo, 0.05 h
[9] = Drug uptake in iv dosed Wistar rat assessed as standardized uptake value by PET imaging analysis; type: ADME, organism-based; details: in vivo

With `CC(C)=CCC/C(C)=C/CC/C(C)=C/C=C/C([11CH3])=C/C(=O)O` the SUV [1] was over 3, the Drug metabolism [2] was “Metabolite_Detected” and the SUV [3] was 6.7. It also gave an SUV [4] of 4.3, an SUV [5] of 0.8 and an SUV [6] of 1.4. The Drug metabolism [7] was “Metabolite_Detected” and the Drug uptake [8] was “Active”.

`CC(C)=CCC/C(C)=C/CC/C(C)=C/C=C/C([11CH3])=C/C(=O)OCc1ccccc1` showed an SUV [9] of 0.6.
